US7622551B2, “Leukocyte stimulating peptides” (POSCO, priority 2004, dated 2009)
“Also recorded” adds a separate entry of the source. Values belong to the substance of their own block, whether it stands above or below them. Where no end group is shown, it is not given here.

Key:
FPRL1 = target: T1, FPRL1 (Homo sapiens, UniProt P25090); assay: [Ca2+]i increase in FPRL1-expressing RBL-2H3 cells; assay type: cell-based; details: 10 μM of each peptide (FIG. 7)
T1 construct: expressed in transfected cells; host or cells: RBL-2H3
T1 sequence (P25090 1-351): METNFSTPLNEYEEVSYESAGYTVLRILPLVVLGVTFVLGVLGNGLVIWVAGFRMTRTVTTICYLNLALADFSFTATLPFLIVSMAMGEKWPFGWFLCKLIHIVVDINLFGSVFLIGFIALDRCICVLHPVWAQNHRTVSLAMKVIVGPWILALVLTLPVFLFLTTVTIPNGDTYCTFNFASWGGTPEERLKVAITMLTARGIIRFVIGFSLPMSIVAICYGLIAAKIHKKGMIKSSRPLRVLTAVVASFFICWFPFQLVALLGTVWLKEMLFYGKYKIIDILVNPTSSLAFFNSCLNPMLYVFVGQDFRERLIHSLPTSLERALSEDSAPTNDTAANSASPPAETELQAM
Method: (§1) U937 (human histiocytic lymphoma cells), HL60 (human promyelocytic leukemia cells), Raw 264.7 (mouse macrophage), Jurkat (human acute T cell leukemia), PC12 (rat adrenal pheochromocytoma cells), 3Y1 (Rat embryonic fibroblasts), 3T3L1 (preadipocytes), and NCI-H292 (human mucoepidermoid pulmonary carcinoma cells) were obtained from the American Type Culture Collection (Rockville, Md.) and maintained as recommended. FPR- or FPRL1 expressing RBL-2H3 cells were cultured as described previously (He et al. J. Immunol. 2000. 165: 4598-4605). Cells were maintained at about 1×10^6 cells/ml under standard incubator conditions (humidified atmosphere, 95% air, 5% CO2, at 37° C.). HL60 cells were induced to differentiate into the granulocyte phenotype by adding dimethylsulfoxide (DMSO) (final concentration 1.25%, v/v) for 4 days to the culture medium, as described previously (Itoh et al. Blood. 1998. 92: 1432-1441).
(§2) The level of [Ca^2+]i was determined using Grynkiewicz's method using fura-2/AM (Grynkiewicz et al. J. Biol. Chem. 1985. 260: 3440-3550). Briefly, prepared cells were incubated with 3 μM of fura-2/AM at 37° C. for 50 min in serum-free RPMI 1640 medium under continuous stirring. 2×10^6 cells were aliquoted for each assay in Ca^2+ free Locke's solution (154 mM NaCl, 5.6 mM KCl, 1.2 mM MgCl2, 5 mM HEPES, pH 7.3, 10 mM glucose, and 0.2 mM EGTA). Fluorescence changes were measured at the dual excitation wavelength of 340 nm and 380 nm, and the calculated fluorescence ratio was translated into [Ca^2+]i.

human neutrophils = assay: Superoxide generation (cytochrome c reduction) in human neutrophils; assay type: cell-based; details: for Superoxide production: 1 μM of peptide, cytochrome c reduction
Method: Peripheral blood leukocyte concentrates were donated by the Ulsan Red Cross Blood Center (Ulsan, Korea). PBMCs were separated on a Histopaque-1077 gradient. After two washings with HBSS without Ca^2+ and Mg^2+, the PBMCs were suspended in 10% FBS containing RPMI and incubated for 60 min at 37° C. to let the monocytes attach to the culture dish. Cells were washed 5 times with warmed RPMI medium to remove lymphocytes, and then the attached monocytes were collected, as described previously (Bae et al. J. Leukoc. Biol. 1999. 65: 241-248). Human neutrophils were isolated according to standard procedures; i.e., dextran sedimentation, hypotonic lysis of erythrocytes, and using a medium lymphocyte separation gradient, as described previously (Seo et al. J. Immunol. 1997. 158: 1895-1901). Isolated human leukocytes were then used promptly.
We determined superoxide anion generation by measuring cytochrome c reduction using a microtiter 96 well plate ELISA reader (Bio-Tekinstruments, EL312e, Winooski, Vt.) as described previously (Bae et al. Blood. 2001. 97: 2854-2862). Human neutrophils (1×10^6 cells/100 μl of RPMI 1640 medium per well of a 96-well plate) were preincubated with 50 μM of cytochrome c at 37° C. for 1 min and then incubated with the indicated peptide concentrations. Superoxide generation was determined from change in light absorption at 550 nm over 5 minutes at 1 min intervals.

FPR = target: T2, FPR (Homo sapiens, UniProt P21462); assay: [Ca2+]i increase in FPR-expressing RBL-2H3 cells; assay type: cell-based; details: data not shown
T2 construct: expressed in transfected cells; host or cells: RBL-2H3
T2 sequence (P21462 1-350): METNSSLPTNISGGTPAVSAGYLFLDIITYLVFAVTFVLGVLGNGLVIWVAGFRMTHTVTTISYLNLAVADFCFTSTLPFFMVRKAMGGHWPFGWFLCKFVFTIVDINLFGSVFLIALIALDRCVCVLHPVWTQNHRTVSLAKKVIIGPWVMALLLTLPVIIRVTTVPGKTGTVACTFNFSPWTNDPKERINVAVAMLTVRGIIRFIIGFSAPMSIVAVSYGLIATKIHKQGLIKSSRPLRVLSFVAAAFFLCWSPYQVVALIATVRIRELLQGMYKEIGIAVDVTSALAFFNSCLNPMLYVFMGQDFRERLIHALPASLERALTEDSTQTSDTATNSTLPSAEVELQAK
Method: as §1, §2

ERK = ERK phosphorylation in dHL60 cells (anti-phospho-ERK immunoblot); assay type: cell-based, human; details: for Phosphorylation level of ERK: dHL60 cells (FIG. 9); for Effect of LY294002 (PI3K) on peptide-induced ERK phosphorylation / Effect of PD98059 (MEK) on peptide-induced ERK phosphorylation / Time of maximal ERK activation after stimulation / Effect of GF109203X (PKC) on peptide-induced ERK phosphorylation: dHL60 cells; for Effect of LY294002 (PI3K) on peptide-induced ERK phosphorylation: LY294002 (50 μM) 15 minutes; for Effect of LY294002 (PI3K) on peptide-induced ERK phosphorylation / Effect of PD98059 (MEK) on peptide-induced ERK phosphorylation / Effect of GF109203X (PKC) on peptide-induced ERK phosphorylation: 1 μM peptide 5 minutes; for Effect of PD98059 (MEK) on peptide-induced ERK phosphorylation: PD98059 (50 μM) 60 minutes; for Time of maximal ERK activation after stimulation: data not shown; for Effect of GF109203X (PKC) on peptide-induced ERK phosphorylation: GF109203X (5 μM) 15 minutes
Method: Each sample (30 μg of protein) was subjected to 8% SDS-PAGE, and phosphorylated ERK was quantified by immunoblot analysis with anti-phospho-ERK antibody. The results shown are from a single experiment representative of at least three independent experiments.
Extracellular signal regulated protein kinase (ERK) is a well-known intracellular enzyme that mediates diverse cellular responses (Sugden et al. Cell Signal. 1997. 9: 337-351). […] To compare the intracellular signaling involving these 4 peptides, dHL60 cells were pretreated either with LY294002 (50 μM), GF109203X (5 μM), or PD98059 (50 μM) or left untreated as a control. After being incubated for the indicated periods (15 minutes for LY294002 and GF109203X, 60 minutes for PD98059), the cells were stimulated with 1 μM of each peptide for 5 minutes.

[Ca^2+]i increase in FPRL1-expressing RBL-2H3 cells (FPRL1): induced calcium increase
[Ca^2+]i in FPR-expressing RBL-2H3 cells / ligand for FPR (FPR): not for FPR
Substance: MKYYKM-NH2 [Peptide P21]
Superoxide generation (in words) (human neutrophils): stimulate superoxide generation in a concentration-dependent manner
Superoxide production (human neutrophils): 12.7 ± 1.76 nmole/10^6 cells
Phosphorylation level of ERK (ERK): dramatic increase
Effect of LY294002 (PI3K) on peptide-induced ERK phosphorylation (ERK): PI3K and MEK-dependency
Effect of PD98059 (MEK) on peptide-induced ERK phosphorylation (ERK): PI3K and MEK-dependency
Time of maximal ERK activation after stimulation (ERK): 5 min

[Ca^2+]i increase in FPRL1-expressing RBL-2H3 cells (FPRL1): induced calcium increase
[Ca^2+]i in FPR-expressing RBL-2H3 cells / ligand for FPR (FPR): not for FPR
Substance: RKYHVM-NH2 [Peptide P14]
Superoxide generation (in words) (human neutrophils): stimulate superoxide generation in a concentration-dependent manner
Superoxide production (human neutrophils): 9.3 ± 1.42 nmole/10^6 cells
Phosphorylation level of ERK (ERK): dramatic increase
Effect of GF109203X (PKC) on peptide-induced ERK phosphorylation (ERK): blocked
Effect of LY294002 (PI3K) on peptide-induced ERK phosphorylation (ERK): blocked
Effect of PD98059 (MEK) on peptide-induced ERK phosphorylation (ERK): blocked
Time of maximal ERK activation after stimulation (ERK): 5 min

Substance: MKYYYM-NH2 [Peptide P24]
[Ca^2+]i increase in FPRL1-expressing RBL-2H3 cells (FPRL1): induced calcium increase
Superoxide generation (in words) (human neutrophils): stimulate superoxide generation in a concentration-dependent manner; also recorded: most potent
Superoxide production (human neutrophils): 34.2 ± 0.48 nmole/10^6 cells
[Ca^2+]i in FPR-expressing RBL-2H3 cells / ligand for FPR (FPR): not for FPR
Phosphorylation level of ERK (ERK): dramatic increase
Effect of GF109203X (PKC) on peptide-induced ERK phosphorylation (ERK): not by GF109203X
Effect of LY294002 (PI3K) on peptide-induced ERK phosphorylation (ERK): partially blocked
Time of maximal ERK activation after stimulation (ERK): 5 min
